Measurements from PubChem BioAssay AID330 (DTP/NCI, 2004).
“And” between values parts separate entries of the source, which are not always exact repeats. Equal entries are not always repeated. Inconclusive results and toxic doses are left out. The calls were made as follows: active = survival T/C of 150% or more; inactive = T/C below 125% in these data.

System: P388 leukemia ip, CD2F1 mice, survival T/C
Test: NCI In Vivo Anticancer Drug Screen. Data for tumor model P388 Leukemia (intraperitoneal) in CD2F1 (CDF1) mice
Settings: endpoint: median survival time, higher = longer survival
Method in brief: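 Mice carrying the transplanted tumor received test compound or vehicle. Survival was recorded in each group, and the value is the treated-group measurement divided by that of the vehicle-treated control group.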

[1] = dose: 25.0 mg/kg/injection, schedule: Q04DX003 (ip), vehicle: saline with Tween-80
[2] = dose: 25.0 mg/kg/injection, schedule: Q01DX009 (ip), vehicle: saline with Tween-80
[3] = dose: 50.0 mg/kg/injection, schedule: Q01DX009 (ip), vehicle: saline with Tween-80
[4] = dose: 100.0 mg/kg/injection, schedule: Q01DX009 (ip), vehicle: saline with Tween-80
[5] = dose: 25.0 mg/kg/injection, schedule: Q01DX005 (ip), vehicle: saline with Tween-80
[6] = dose: 100.0 mg/kg/injection, schedule: Q04DX003 (ip), vehicle: saline
[7] = dose: 50.0 mg/kg/injection, schedule: Q01DX009 (ip), vehicle: saline
[8] = dose: 60.0 mg/kg/injection, schedule: Q01DX005 (ip), vehicle: saline with Tween-80
[9] = dose: 120.0 mg/kg/injection, schedule: Q01DX005 (ip), vehicle: saline with Tween-80
[10] = dose: 240.0 mg/kg/injection, schedule: Q01DX005 (ip), vehicle: saline with Tween-80
[11] = dose: 60.0 mg/kg/injection, schedule: Q01DX005 (ip), vehicle: Klucel (hydroxypropylcellulose) (HPC)
[12] = dose: 120.0 mg/kg/injection, schedule: Q01DX005 (ip), vehicle: Klucel (hydroxypropylcellulose) (HPC)
[13] = dose: 240.0 mg/kg/injection, schedule: Q01DX005 (ip), vehicle: Klucel (hydroxypropylcellulose) (HPC)

Measured: T/C

CCOC(=O)CCCCSCCCCC(=O)OCC
inactive: dose: 100.0 mg/kg/injection, schedule: Q01DX001 (ip), vehicle: saline with Tween-80 100 % of control | dose: 200.0 mg/kg/injection, schedule: Q01DX001 (ip), vehicle: saline with Tween-80 100 % of control | dose: 400.0 mg/kg/injection, schedule: Q01DX001 (ip), vehicle: saline with Tween-80 100 % of control

O=C(O)c1ccccc1C(=O)c1ccc(CBr)cc1
inactive: dose: 1.56 mg/kg/injection, schedule: Q01DX009 (ip), vehicle: saline with Tween-80 109 % of control | dose: 3.13 mg/kg/injection, schedule: Q01DX009 (ip), vehicle: saline with Tween-80 109 % of control | dose: 6.25 mg/kg/injection, schedule: Q01DX009 (ip), vehicle: saline with Tween-80 109 % of control and 113 % of control | dose: 6.25 mg/kg/injection, schedule: Q04DX003 (ip), vehicle: saline with Tween-80 91 % of control | dose: 12.5 mg/kg/injection, schedule: Q04DX003 (ip), vehicle: saline with Tween-80 95 % of control | [1] 108 % of control

CN1CCN(Cc2ncc(C3CCCCC3)c(=O)[nH]2)CC1
inactive: [2] 100 % of control | [3] 102 % of control | [4] 97 % of control

COc1cc(C2CC(=O)N(c3ccc(C)cc3)C(=O)C2)cc(OC)c1OC
inactive: dose: 25.0 mg/kg/injection, schedule: Q01DX005 (ip), vehicle: Klucel + Tween-80 98 % of control | dose: 50.0 mg/kg/injection, schedule: Q01DX005 (ip), vehicle: Klucel + Tween-80 100 % of control and 105 % of control and 122 % of control | dose: 50.0 mg/kg/injection, schedule: Q01DX009 (ip), vehicle: Klucel + Tween-80 108 % of control | dose: 100.0 mg/kg/injection, schedule: Q01DX005 (ip), vehicle: Klucel + Tween-80 106 % of control and 110 % of control (2×) | dose: 114.0 mg/kg/injection, schedule: Q01DX009 (ip), vehicle: Klucel + Tween-80 117 % of control | dose: 175.0 mg/kg/injection, schedule: Q01DX009 (ip), vehicle: Klucel + Tween-80 122 % of control | dose: 200.0 mg/kg/injection, schedule: Q01DX005 (ip), vehicle: Klucel + Tween-80 110 % of control and 114 % of control and 122 % of control | dose: 264.0 mg/kg/injection, schedule: Q01DX009 (ip), vehicle: Klucel + Tween-80 93 % of control | dose: 400.0 mg/kg/injection, schedule: Q01DX009 (ip), vehicle: Klucel + Tween-80 92 % of control

N#Cc1ccc(NN=NCCOCCCl)cc1
inactive: dose: 6.25 mg/kg/injection, schedule: Q01DX009 (ip), vehicle: distilled water + Tween-80 97 % of control | dose: 12.5 mg/kg/injection, schedule: Q01DX009 (ip), vehicle: distilled water + Tween-80 107 % of control | dose: 25.0 mg/kg/injection, schedule: Q01DX009 (ip), vehicle: distilled water + Tween-80 104 % of control | dose: 50.0 mg/kg/injection, schedule: Q01DX009 (ip), vehicle: distilled water + Tween-80 103 % of control | dose: 100.0 mg/kg/injection, schedule: Q01DX009 (ip), vehicle: distilled water + Tween-80 104 % of control

CC(=O)NCCc1nc(-c2nc(C(=O)NCCC[S+](C)C)cs2)cs1
inactive: dose: 1.56 mg/kg/injection, schedule: Q01DX005 (ip), vehicle: saline with Tween-80 107 % of control | dose: 3.13 mg/kg/injection, schedule: Q01DX005 (ip), vehicle: saline with Tween-80 107 % of control | dose: 6.25 mg/kg/injection, schedule: Q01DX005 (ip), vehicle: saline with Tween-80 100 % of control and 105 % of control | [5] 96 % of control

COC(=O)/C=C\C(=O)O
inactive: dose: 50.0 mg/kg/injection, schedule: Q04DX003 (ip), vehicle: saline 100 % of control | [6] 110 % of control | dose: 200.0 mg/kg/injection, schedule: Q04DX003 (ip), vehicle: saline 120 % of control

Cc1cnc(Sc2c([N+](=O)[O-])ncn2C)nc1
inactive: [7] 109 % of control | dose: 100.0 mg/kg/injection, schedule: Q01DX009 (ip), vehicle: saline 104 % of control | dose: 200.0 mg/kg/injection, schedule: Q01DX009 (ip), vehicle: saline 109 % of control

CC1=NOC(=O)/C1=C/c1ccc(Cl)cc1
inactive: [8] 99 % of control | [9] 105 % of control | [10] 104 % of control

CC1(c2ccc(-c3ccccc3)cc2)NC(=O)NC1=O (stereo not drawn)
inactive: [2] 91 % of control | [3] 86 % of control | [4] 91 % of control

O=C/C(=C\O)NC(=O)c1ccccc1C(=O)O
inactive: [11] 99 % of control | [12] 99 % of control | [13] 92 % of control

OCCCCC12CCC(CCCCO)(CC1)CC2
inactive: dose: 100.0 mg/kg/injection, schedule: Q04DX002 (ip), vehicle: Klucel (hydroxypropylcellulose) (HPC) 91 % of control | dose: 400.0 mg/kg/injection, schedule: Q04DX002 (ip), vehicle: Klucel (hydroxypropylcellulose) (HPC) 86 % of control

Cc1ccc(C2COc3cc(O)c(O)cc3C2)cc1 (stereo not drawn)
inactive: [8] 103 % of control | [9] 105 % of control | [10] 117 % of control

C/C(=C(/O)c1ccc(Cl)cc1)c1nc2cc(Cl)cc([N+](=O)[O-])c2[nH]c1=O
inactive: [11] 100 % of control | [12] 107 % of control | [13] 111 % of control

CCOC(=O)Nc1c(C)cc(C)cc1C
inactive: dose: 25.0 mg/kg/injection, schedule: Q01DX009 (ip), vehicle: Klucel (hydroxypropylcellulose) (HPC) 99 % of control | dose: 50.0 mg/kg/injection, schedule: Q01DX009 (ip), vehicle: Klucel (hydroxypropylcellulose) (HPC) 100 % of control | dose: 100.0 mg/kg/injection, schedule: Q01DX009 (ip), vehicle: Klucel (hydroxypropylcellulose) (HPC) 94 % of control | dose: 200.0 mg/kg/injection, schedule: Q01DX009 (ip), vehicle: Klucel (hydroxypropylcellulose) (HPC) 100 % of control

O=C1C(Cl)=C(Sc2nc3ccccc3s2)C(=O)c2ccccc21
inactive: dose: 12.5 mg/kg/injection, schedule: Q01DX005 (ip), vehicle: saline with Tween-80 100 % of control | [5] 100 % of control

CC1(O)C(=O)OC(CO)C1O (stereo not drawn)
inactive: dose: 50.0 mg/kg/injection, schedule: Q01DX005 (ip), vehicle: saline with Tween-80 102 % of control | dose: 100.0 mg/kg/injection, schedule: Q01DX005 (ip), vehicle: saline with Tween-80 102 % of control | dose: 200.0 mg/kg/injection, schedule: Q01DX005 (ip), vehicle: saline with Tween-80 100 % of control

COc1cc2c(cc1OC)C13CCN4CC5=CCOC6CC(=O)N2C1C6C5CC43 (stereo not drawn) (tested in a mixture with another compound)
inactive: [1] 100 % of control | [3] 104 % of control | dose: 50.0 mg/kg/injection, schedule: Q04DX003 (ip), vehicle: saline with Tween-80 104 % of control | [4] 106 % of control | dose: 100.0 mg/kg/injection, schedule: Q04DX003 (ip), vehicle: saline with Tween-80 104 % of control

CCCCNC(C)(C)C(SSSC(c1ccco1)C(C)(C)NCCCC)c1ccco1 (stereo not drawn)
inactive: dose: 12.5 mg/kg/injection, schedule: Q01DX009 (ip), vehicle: saline 109 % of control | dose: 25.0 mg/kg/injection, schedule: Q01DX009 (ip), vehicle: saline 113 % of control | [7] 113 % of control | dose: 66.0 mg/kg/injection, schedule: Q04DX003 (ip), vehicle: saline 100 % of control | [6] 118 % of control | dose: 150.0 mg/kg/injection, schedule: Q04DX003 (ip), vehicle: saline 109 % of control
